Holding throughout (test): biochemical
Set-up in all cases: DiscoveRx KINOMEscan active site-directed competition binding; percent of control kinase bound to immobilised ligand

Test [1] deals with BLK (Homo sapiens, UniProt P51451).
Test [2] addresses T1, GRK1 (Homo sapiens, UniProt Q15835).
T1 sequence (Q15835 1-563): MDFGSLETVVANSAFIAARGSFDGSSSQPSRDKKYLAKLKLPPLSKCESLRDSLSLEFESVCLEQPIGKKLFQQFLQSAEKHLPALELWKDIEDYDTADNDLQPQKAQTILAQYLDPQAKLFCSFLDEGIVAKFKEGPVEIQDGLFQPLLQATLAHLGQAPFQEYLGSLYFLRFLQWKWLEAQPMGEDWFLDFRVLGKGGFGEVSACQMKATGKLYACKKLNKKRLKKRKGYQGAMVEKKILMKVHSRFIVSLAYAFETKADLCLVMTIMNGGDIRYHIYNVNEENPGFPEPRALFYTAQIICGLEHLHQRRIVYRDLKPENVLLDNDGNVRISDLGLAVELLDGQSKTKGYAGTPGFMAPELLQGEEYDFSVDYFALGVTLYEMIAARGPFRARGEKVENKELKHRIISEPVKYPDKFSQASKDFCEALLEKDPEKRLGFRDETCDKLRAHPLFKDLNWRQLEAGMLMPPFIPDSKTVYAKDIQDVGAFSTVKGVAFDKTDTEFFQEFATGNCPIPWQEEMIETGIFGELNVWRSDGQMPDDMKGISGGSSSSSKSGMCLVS

Test [3] addresses KIT(V559D,V654A) (Homo sapiens, UniProt P10721, V559D/V654A).
In test [4] the target is T2, MAP3K15 (Homo sapiens, UniProt Q6ZN16).
T2 sequence (Q6ZN16 1-1313): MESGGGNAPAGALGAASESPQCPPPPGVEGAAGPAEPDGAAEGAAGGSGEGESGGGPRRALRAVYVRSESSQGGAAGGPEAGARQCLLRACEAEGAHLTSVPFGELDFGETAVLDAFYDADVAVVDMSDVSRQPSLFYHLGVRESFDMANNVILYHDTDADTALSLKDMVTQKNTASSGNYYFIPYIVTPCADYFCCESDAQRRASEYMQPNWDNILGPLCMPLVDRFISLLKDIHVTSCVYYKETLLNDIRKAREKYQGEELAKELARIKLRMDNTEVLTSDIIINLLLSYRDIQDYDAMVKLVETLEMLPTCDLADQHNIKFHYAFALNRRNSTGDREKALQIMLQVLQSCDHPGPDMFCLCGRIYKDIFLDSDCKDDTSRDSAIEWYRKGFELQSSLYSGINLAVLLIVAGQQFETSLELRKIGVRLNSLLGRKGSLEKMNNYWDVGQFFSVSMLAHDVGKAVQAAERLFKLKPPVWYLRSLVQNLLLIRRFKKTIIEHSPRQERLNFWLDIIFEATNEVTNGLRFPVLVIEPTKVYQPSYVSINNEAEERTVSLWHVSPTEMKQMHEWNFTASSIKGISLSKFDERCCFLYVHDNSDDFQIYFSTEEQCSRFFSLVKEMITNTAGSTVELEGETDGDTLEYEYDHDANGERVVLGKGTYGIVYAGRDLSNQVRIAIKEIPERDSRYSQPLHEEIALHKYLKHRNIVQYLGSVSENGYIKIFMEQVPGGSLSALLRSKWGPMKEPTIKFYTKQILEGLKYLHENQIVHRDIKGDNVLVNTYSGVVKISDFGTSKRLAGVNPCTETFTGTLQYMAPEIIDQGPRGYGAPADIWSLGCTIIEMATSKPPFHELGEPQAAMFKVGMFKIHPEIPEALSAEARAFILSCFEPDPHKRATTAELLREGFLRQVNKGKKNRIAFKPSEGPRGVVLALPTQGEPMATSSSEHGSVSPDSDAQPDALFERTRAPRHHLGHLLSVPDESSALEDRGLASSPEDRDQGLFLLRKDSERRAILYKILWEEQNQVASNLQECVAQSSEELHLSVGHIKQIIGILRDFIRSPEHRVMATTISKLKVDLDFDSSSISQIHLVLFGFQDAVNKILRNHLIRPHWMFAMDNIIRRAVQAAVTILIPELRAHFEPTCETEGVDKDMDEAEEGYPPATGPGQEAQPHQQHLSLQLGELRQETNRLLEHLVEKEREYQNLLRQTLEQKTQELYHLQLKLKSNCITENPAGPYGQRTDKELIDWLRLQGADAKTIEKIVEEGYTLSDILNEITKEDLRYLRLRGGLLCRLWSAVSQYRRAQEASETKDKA

Test [5] has as its target MARK3 (Homo sapiens, UniProt P27448).
Test [6] has as its target MYLK2 (Homo sapiens, UniProt Q9H1R3).
The target of test [7] is T3, QSK (Homo sapiens, UniProt Q9Y2K2).
T3 construct: gene SIK3
T3 sequence (Q9Y2K2 whole entry): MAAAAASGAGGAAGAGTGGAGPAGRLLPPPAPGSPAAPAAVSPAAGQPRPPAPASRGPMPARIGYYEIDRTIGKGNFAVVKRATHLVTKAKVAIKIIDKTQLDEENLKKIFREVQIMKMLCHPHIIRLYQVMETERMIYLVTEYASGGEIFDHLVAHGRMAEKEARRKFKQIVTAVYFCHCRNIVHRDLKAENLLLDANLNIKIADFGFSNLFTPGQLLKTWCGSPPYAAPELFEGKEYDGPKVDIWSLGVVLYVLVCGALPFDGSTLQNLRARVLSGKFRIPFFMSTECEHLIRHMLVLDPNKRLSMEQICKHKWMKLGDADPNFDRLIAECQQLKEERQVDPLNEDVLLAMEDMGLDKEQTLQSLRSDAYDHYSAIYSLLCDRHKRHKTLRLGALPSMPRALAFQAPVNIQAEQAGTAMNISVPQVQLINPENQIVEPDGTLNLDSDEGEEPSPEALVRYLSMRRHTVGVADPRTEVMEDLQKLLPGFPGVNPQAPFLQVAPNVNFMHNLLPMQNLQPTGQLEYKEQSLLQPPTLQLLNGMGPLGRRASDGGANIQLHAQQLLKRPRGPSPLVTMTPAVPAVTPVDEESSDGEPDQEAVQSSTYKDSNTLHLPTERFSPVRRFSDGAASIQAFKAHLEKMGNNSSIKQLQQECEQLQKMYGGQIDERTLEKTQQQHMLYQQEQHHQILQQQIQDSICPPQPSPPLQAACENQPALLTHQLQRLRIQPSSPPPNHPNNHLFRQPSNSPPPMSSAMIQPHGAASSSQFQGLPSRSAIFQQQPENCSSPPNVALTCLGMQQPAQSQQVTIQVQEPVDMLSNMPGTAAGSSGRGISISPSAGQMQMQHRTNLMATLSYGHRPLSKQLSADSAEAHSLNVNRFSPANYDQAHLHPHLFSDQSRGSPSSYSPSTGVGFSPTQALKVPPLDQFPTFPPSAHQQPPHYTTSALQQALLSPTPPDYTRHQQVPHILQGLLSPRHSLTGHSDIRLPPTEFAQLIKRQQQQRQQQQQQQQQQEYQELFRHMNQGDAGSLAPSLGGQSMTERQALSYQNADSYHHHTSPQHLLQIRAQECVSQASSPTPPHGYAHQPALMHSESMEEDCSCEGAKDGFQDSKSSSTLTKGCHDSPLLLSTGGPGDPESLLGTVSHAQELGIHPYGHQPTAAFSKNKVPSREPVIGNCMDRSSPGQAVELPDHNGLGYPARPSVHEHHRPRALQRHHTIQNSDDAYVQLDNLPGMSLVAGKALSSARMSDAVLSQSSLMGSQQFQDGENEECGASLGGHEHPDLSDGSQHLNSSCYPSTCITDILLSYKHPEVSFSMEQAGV

Setting [8] is: read-out: Rucaparib / %Ctrl @ 10000nM, binding competition, % of control.
The mark [9] stands for this setting: read-out: Talazoparib (BMN 673) / %Ctrl @ 10000nM.
Where [10] appears, read: read-out: Niraparib (MK-4827) / %Ctrl @ 10000nM.
The mark [11] stands for this setting: read-out: Olaparib / %Ctrl @ 10000nM.

Where two headings read alike, the source gives them in different places.

Chain of MYLK2 (Q9H1R3 whole entry): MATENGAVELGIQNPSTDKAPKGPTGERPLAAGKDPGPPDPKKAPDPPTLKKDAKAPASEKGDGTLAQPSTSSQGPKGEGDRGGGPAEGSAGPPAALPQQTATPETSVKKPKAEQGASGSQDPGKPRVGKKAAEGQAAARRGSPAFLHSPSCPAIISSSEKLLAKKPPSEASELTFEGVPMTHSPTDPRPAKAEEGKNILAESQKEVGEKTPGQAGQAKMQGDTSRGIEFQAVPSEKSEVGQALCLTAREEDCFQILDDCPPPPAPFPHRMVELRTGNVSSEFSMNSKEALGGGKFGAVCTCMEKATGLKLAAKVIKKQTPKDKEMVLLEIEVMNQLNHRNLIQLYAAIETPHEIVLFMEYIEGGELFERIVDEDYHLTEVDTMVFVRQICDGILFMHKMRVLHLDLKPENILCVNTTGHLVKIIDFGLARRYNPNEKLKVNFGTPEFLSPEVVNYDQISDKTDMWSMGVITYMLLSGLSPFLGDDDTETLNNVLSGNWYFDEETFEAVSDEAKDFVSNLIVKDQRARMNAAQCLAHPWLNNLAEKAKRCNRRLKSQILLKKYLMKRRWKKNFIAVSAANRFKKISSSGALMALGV
Chain of MARK3 (P27448 whole entry): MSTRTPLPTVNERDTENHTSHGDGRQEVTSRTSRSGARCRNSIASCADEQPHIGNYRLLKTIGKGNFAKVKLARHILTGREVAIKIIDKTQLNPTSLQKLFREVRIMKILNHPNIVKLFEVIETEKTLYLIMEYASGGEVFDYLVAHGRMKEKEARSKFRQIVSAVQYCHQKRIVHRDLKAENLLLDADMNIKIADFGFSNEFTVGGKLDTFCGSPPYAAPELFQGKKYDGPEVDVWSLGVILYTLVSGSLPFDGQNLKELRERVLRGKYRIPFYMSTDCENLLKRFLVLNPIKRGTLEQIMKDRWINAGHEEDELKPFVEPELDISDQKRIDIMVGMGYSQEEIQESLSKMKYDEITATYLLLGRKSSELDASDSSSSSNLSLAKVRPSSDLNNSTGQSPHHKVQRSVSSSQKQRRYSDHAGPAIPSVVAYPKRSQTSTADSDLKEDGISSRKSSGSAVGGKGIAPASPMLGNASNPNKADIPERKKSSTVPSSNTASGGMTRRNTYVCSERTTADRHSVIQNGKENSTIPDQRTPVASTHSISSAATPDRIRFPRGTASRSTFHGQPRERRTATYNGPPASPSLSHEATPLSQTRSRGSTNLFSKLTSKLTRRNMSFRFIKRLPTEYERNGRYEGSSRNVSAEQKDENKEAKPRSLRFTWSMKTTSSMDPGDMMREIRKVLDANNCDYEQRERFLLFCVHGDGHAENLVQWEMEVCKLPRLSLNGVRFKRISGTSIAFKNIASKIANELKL
Chain of BLK (P51451 whole entry): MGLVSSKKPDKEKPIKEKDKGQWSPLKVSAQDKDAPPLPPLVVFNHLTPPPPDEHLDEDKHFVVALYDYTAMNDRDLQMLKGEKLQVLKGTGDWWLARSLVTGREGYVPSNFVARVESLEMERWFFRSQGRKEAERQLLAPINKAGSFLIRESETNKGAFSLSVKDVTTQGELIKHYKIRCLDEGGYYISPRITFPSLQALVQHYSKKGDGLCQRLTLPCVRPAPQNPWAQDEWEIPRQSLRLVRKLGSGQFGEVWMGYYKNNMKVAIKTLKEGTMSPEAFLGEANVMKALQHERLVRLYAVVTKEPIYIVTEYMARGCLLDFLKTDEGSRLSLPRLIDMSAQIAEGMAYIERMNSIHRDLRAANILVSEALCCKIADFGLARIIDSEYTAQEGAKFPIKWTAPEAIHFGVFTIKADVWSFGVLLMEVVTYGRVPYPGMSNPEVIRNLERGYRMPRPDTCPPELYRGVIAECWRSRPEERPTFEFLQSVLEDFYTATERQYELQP
Chain of KIT(V559D,V654A) (P10721 whole entry V559D/V654A): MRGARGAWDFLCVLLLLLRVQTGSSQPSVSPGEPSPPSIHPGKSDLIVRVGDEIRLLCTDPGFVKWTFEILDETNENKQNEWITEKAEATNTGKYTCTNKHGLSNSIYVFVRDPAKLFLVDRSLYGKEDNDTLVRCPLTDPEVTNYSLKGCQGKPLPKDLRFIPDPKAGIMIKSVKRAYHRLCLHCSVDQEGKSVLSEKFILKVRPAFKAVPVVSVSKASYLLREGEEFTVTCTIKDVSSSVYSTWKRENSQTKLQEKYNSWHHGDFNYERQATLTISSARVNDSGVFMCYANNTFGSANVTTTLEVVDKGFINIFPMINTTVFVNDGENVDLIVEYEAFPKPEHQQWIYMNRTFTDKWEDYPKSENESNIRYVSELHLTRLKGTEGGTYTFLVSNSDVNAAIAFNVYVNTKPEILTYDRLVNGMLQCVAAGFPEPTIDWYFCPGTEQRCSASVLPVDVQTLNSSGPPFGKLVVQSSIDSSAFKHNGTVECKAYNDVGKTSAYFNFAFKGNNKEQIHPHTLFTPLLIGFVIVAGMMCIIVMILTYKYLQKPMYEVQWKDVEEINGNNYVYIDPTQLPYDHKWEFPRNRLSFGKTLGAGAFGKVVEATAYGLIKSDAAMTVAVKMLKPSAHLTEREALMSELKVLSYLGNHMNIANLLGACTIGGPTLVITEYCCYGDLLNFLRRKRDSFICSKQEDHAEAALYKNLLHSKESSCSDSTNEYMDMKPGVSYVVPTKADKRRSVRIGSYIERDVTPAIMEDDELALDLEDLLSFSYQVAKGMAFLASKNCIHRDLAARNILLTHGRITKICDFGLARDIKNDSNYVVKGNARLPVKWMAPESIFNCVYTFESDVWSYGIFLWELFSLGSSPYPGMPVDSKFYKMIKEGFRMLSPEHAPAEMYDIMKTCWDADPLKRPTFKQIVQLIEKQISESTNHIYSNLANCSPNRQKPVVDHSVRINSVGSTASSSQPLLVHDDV

With `CNCc1ccc(-c2[nH]c3cc(F)cc4c3c2CCNC4=O)cc1` [Rucaparib], the percent of control binding at 10 µM in test [1] (setting [8]) amounted to 91%; in test [2] (setting [8]), 64%; in test [3] (setting [8]), 92%; in test [4] (setting [8]), 73%; in test [5] (setting [8]), 100%; in test [6] (setting [8]) it was 74%. For the same molecule, the percent of control binding at 10 µM in test [7] (setting [8]) came out at 77%.

As to `Cn1ncnc1[C@H]1c2n[nH]c(=O)c3cc(F)cc(c23)N[C@@H]1c1ccc(F)cc1` [Talazoparib], the percent of control binding at 10 µM in test [1] (setting [9]) worked out at 99%; in test [2] (setting [9]) it was 100%; in test [3] (setting [9]) it was 96%; in test [4] (setting [9]), 100%; in test [5] (setting [9]), 98%; in test [6] (setting [9]) it was 100%. Also, the percent of control binding at 10 µM in test [7] (setting [9]) was 75%.

Consider `NC(=O)c1cccc2cn(-c3ccc([C@@H]4CCCNC4)cc3)nc12` [Niraparib], for which the percent of control binding at 10 µM was determined as 72% in test [1] (setting [10]); 95% in test [2] (setting [10]); 90% in test [3] (setting [10]); 64% in test [4] (setting [10]); 91% in test [5] (setting [10]); 92% in test [6] (setting [10]). Further, in test [7] (setting [10]), the percent of control binding at 10 µM was determined as 93%.

As for `O=C(c1cc(Cc2n[nH]c(=O)c3ccccc23)ccc1F)N1CCN(C(=O)C2CC2)CC1` [Olaparib], the percent of control binding at 10 µM in test [1] (setting [11]) turned out to be 90%; in test [2] (setting [11]), 91%; in test [3] (setting [11]), 95%; in test [4] (setting [11]), 100%; in test [5] (setting [11]), 96%; in test [6] (setting [11]), 100%. Also, the percent of control binding at 10 µM in test [7] (setting [11]) worked out at 83%.

Values taken from publication PMC7026418, “The kinase polypharmacology landscape of clinical PARP inhibitors” (Scientific Reports, 2020).
